Assay results as given in US4889854A, “Tricyclic pyridone derivatives” (Hoffman-La Roche Inc., priority 1987, dated 1989).

Columns and labels:
[1] = test system: spasmodic seizures caused by pentetrazole; experiment: antipentetrazole test (oral administration, mice); type: in vivo; conditions: Mus musculus, 30 minutes before 120 mg/kg pentetrazole i.p., dosage which protects 50% of the animals, Probit method
Description: As mentioned earlier, the compounds of formula A have valuable pharmacological properties. In particular, they display pronounced muscle relaxant, sedative-hypnotic, anticonvulsive and/or anxiolytic properties and have only a low toxicity.
(§1) In this animal experiment, the compound under investigation is administered orally to mice and 30 minutes later they are administered intraperitoneally 120 mg/kg of pentetrazole, which causes emprosthotonus and tonic stretchings of the fore and/or hind limbs in unprotected animals, 1-4 minutes after the injection. Ten (10) experimental animals are used per dosage of test substance. After counting the protected experimental animals, the ED50 is determined according to the known Probit method. The ED50 is that dosage which protects 50% of the experimental animals from the spasmodic seizures caused by pentetrazole. The results which have been obtained with representative members of the class of compound defined by formula A in the experiment described previously are compiled in the following Table. Moreover, the Table contains data concerning the acute toxicity (LD50) of some of these compounds in mg/kg in the case of single oral administration to mice.

[2] = acute toxicity, single oral administration to mice; conditions: mouse, in vivo, single oral administration (p.o.)
Description: as §1

`COC1CN(C(=O)c2cc(-c3ccccc3)c(=O)n3c2-c2sccc2C(C)N3)C1` (racemic) [F, rac-1-[(4,5-dihydro-4-methyl-7-oxo-8-phenyl-7H-pyrido[1,2-b]thieno[2,3-d]pyridazin-10-yl)carbonyl]-3-methoxyazetidine] showed an ED50 [1] of 3.3 mg/kg and an LD50 [2] of 3000 mg/kg.
Molecule `COC1CN(C(=O)c2cc(-c3ccccc3)c(=O)n3c2-c2cc(Cl)ccc2CN3)C1` [C, 1-[(10-chloro-6,7-dihydro-4-oxo-3-phenyl-4H-pyrido[2,1-a]phthalazin-1-yl)carbonyl]-3-methoxyazetidine] has an ED50 [1] of 0.56 mg/kg.
`O=C(c1cc(-c2ccccc2)c(=O)n2c1-c1cc(Cl)ccc1CN2)N1CCOCC1` [Compound A, 4-[(10-chloro-6,7-dihydro-4-oxo-3-phenyl-4H-pyrido[2,1-a]phthalazin-1-yl)carbonyl]morpholine] gave an ED50 [1] of 3.1 mg/kg and an LD50 [2] greater than 3000 mg/kg.
In the case of `COC[C@H]1CCCN1C(=O)c1cc(-c2ccccc2)c(=O)n2c1-c1cc(Cl)ccc1CN2` [Compound B, (R)-1-[(10-chloro-6,7-dihydro-4-oxo-3-phenyl-4H-pyrido[2,1-a]phthalazin-1-yl)carbonyl]-2-(methoxymethyl)pyrrolidine], the ED50 [1] is reported as 0.44 mg/kg and the LD50 [2] is reported as greater than 3000 mg/kg.
Molecule `CN(C)C(=O)c1cc(-c2ccccc2)c(=O)n2c1-c1cc(Cl)ccc1CN2` [D, 10-chloro-6,7-dihydro-N,N-dimethyl-4-oxo-3-phenyl-4H-pyrido[2,1-a]-phthalazine-1-carboxamide] has an ED50 [1] of 0.23 mg/kg.
`CO[C@@H]1CCN(C(=O)c2cc(-c3ccccc3)c(=O)n3c2-c2sccc2CN3)C1` [E, (R)-1-[(4,5-dihydro-7-oxo-8-phenyl-7H-pyrido[1,2-b]thieno[2,3-d]pyridazin-10-yl)carbonyl]-3-methoxypyrrolidine] showed an ED50 [1] of 1.4 mg/kg.
`COC1CN(C(=O)c2cc(-c3ccccc3)c(=O)n3c2-c2sccc2CN3C)C1` [G, 1-[(4,5-dihydro-5-methyl-7-oxo-8-phenyl-7H-pyrido[1,2-b]thieno[2,3-d]pyridazin-10-yl)carbonyl]-3-methoxyazetidine] gave an ED50 [1] of 8.2 mg/kg and an LD50 [2] greater than 5000 mg/kg.
`CN(C)C(=O)c1cc(-c2ccccc2)c(=O)n2c1-c1sccc1CN2` [H, 4,5-dihydro-N,N-dimethyl-7-oxo-8-phenyl-7H-pyrido[1,2-b]thieno[2,3-d]pyridazine-10-carboxamide] showed an ED50 [1] of 0.29 mg/kg and an LD50 [2] greater than 5000 mg/kg.
